Where two headings read alike, the source gives them in different places. Marks after values point to notes of the source that are not given here.
How the values were obtained:
[1] = tested on: SARS-CoV-2 isolate USA-WA1/2020; assay: microbe, parasite or virus in culture; settings: for EC50: Severe acute respiratory syndrome coronavirus 2, A549-ACE2, 48 h; for inhibition at 10 µM: Severe acute respiratory syndrome coronavirus 2, A549-ACE2, read-out: % inhibition at 10 μM (EC50)
A549/ACE2/TMPRSS2 cells = assay: in vitro; settings: A549/ACE2/TMPRSS2 cells
Experimental: (§1) Percentage of infected cells was determined by dividing the number of infected cells by the total number of cells per well. The percentage of infected cells and total number of cells for each treatment was plotted into GraphPad prism (GraphPad Software; San Diego, CA, USA) to perform a non-linear regression analysis, generate infectious dose-response curves and to calculate EC50 and CC50 values.
(§2) Viability assays for the non-infected A549/ACE2/TMPRSS2 cells were performed using the 3-(4,5-dimethylthiazol-2-yl)-5-(3-carboxymethoxyphenyl)-2-(4-sulfophenyl)-2H-tetrazolium (MTS)-based tetrazolium reduction CellTiter 96 Aqueous Non-Radioactive cell proliferation assay (Promega G5430; Madison, WI) as described. Assays were conducted using parallel plates to those used in the immunofluorescence assay. Experimental details (cell line, number of cells seeded and incubation time) corresponded to those used in the immunofluorescence assay above. The data obtained were used to calculate the CC50 value using GraphPad Prism software.

[2] = tested on: SARS-CoV-2 isolate USA-WA1/2020
[3] = Solubility as observed in antiviral testing
[4] = Liver S9 stability assay, human liver S9; settings: n = 2, mean±SD
[5] = Plasma stability assay, human plasma; type: in vitro ADME
Experimental: (§3) Plasma stability assay. The plasma stability assay was performed in triplicate by incubating each selected compound (1 μmol/L final concentration) in normal mouse (CD-1) or human plasma (Innovative Research; Novi, MI, USA) diluted to 80% with 0.1 mol/L potassium phosphate buffer (pH 7.4) at 37° C. At 0, 1, 3, 6, and 24 h, a 50 μL aliquot of the plasma mixture was taken and quenched with 150 μL of acetonitrile containing 0.1% formic acid. The samples were then vortexed and centrifuged at 15,000 rpm (Eppendorf centrifuge 5424R; Enfield, CT, USA) for 5 min. The supernatants were collected and analyzed by LC-MS/MS to determine the in vitro plasma half-life (t1/2).

[6] = Parallel artificial membrane permeability assay (PAMPA); type: in vitro ADME
Experimental: Parallel artificial membrane permeability assay (PAMPA).^5 The membrane permeability of selected compounds was evaluated using the Corning® BioCoat™ Pre-coated PAMPA Plate System (Corning 353015; Glendale, AZ, USA). The pre-coated plate assembly, which was stored at −20° C., was taken to thaw for 30 min at room temperature. The permeability assay was carried out in accordance with the manufacturer's protocol. Briefly, the 96-well filter plate, pre-coated with lipids, was used as the permeation acceptor and a matching 96 well receiver plate was used as the permeation donor. Compound solutions were prepared by diluting the 10 mmol/L DMSO stock solutions with 10% methanol in DPBS to a final concentration of […]. The compound solutions were added to the wells (300 μL/well) of the receiver plate and DPBS with 10% methanol was added to the wells (200 μL/well) of the pre-coated filter plate. The filter plate was then coupled with the receiver plate and the plate assembly was incubated at 25° C. without agitation for 5 h. At the end of the incubation, the plate was separated and the final concentrations of compounds in both donor wells and acceptor wells were analyzed using LC-MS/MS. Permeability of a compound was calculated using the Eq. (1):
where A=filter area (0.3 cm^2), VD=donor well volume (0.3 mL), VA=acceptor well volume (0.2 mL), t=incubation time (seconds), CA(t)=compound concentration in acceptor well at time t, CD(t)=compound concentration in donor well at time t, and Ceq was calculated using the Eq. (2): […]
A cutoff criterion of Pe value at […] was used to classify the compounds into high and low permeability according to the literature report of this PAMPA plate system^1.

SARS-CoV-2 Nsp14 MTase = SARS-CoV-2 Nsp14 MTase (Severe acute respiratory syndrome coronavirus 2, UniProt P0DTD1); assay: biochemical; type: biochemical
[7] = Plasma stability assay, mouse plasma; type: in vitro ADME, mouse (CD-1)
Experimental: as §3

[8] = not given; remark: listed apart in the source
[9] = Liver S9 stability assay, mouse liver S9; settings: n = 2, mean±SD; for Mouse Liver S9 Stability t1/2, Phase II: cofactor UDPGA
in vitro = settings: human
Experimental: as §1, §2

[10] = LC-MS/MS detection of SAH, read-out: MTase IC50

SMILES | EC50 [1] | IC50 (SARS-CoV-2 Nsp14 MTase; [10]) | CC50 (in vitro) | inhibition at 10 µM [1] | also measured
CC(C)C(=O)O[C@@H]1[C@H](OC(=O)C(C)C)[C@@H](CNS(=O)(=O)c2ccc3ccccc3c2)O[C@H]1n1cnc2c(N)ncnc21 [Compound 7, (2R,3R,4R,5R)-2-(6-Amino-9H-purin-9-yl)-5-((naphthalene-2-sulfonamido)methyl)tetrahydrofuran-3,4-diyl bis(2-methylpropanoate)] | ~97 µM | – | – | – | CC50 (A549/ACE2/TMPRSS2 cells): > 100 µM; antiviral activity ([2]; A549 AT cells): showed antiviral activity; solubility [3]: low solubility
Nc1ncnn2c([C@@H]3O[C@H](CNS(=O)(=O)c4ccc5ccccc5c4)[C@@H](O)[C@H]3O)ccc12 [Compound 10, N-(((2R,3S,4R,5S)-5-(4-Aminopyrrolo[2,1-f][1,2,4]triazin-7-yl)-3,4-dihydroxytetrahydrofuran-2-yl)methyl)naphthalene-2-sulfonamide] | 0.72 µM | 0.093 µM | – | – | Human Liver S9 Stability t1/2, Phase I ([4]; cofactor NADPH): 842 ± 210 min; Human Liver S9 Stability t1/2, Phase II ([4]; cofactor UDPGA): >45^e min; Plasma Stability t1/2, Human ([5]; human plasma, 37° C., n = 3): >24^d h; stability in human plasma ([5]; human, plasma): similarly stable; passive diffusion rate in PAMPA ([6]; PAMPA): equally low; PAMPA Permeability Pe ([6]; n = 6, mean±SD, 25° C., 5 h): 0.2 ± 0.1 10^−6 cm/s; MTase inhibitory activity (SARS-CoV-2 Nsp14 MTase): comparable to that of 3; Plasma Stability t1/2, Mouse ([7]; mouse plasma, 37° C., n = 3): >24^d h; stability in mouse plasma ([7]; mouse, plasma): similarly stable; stability in mouse S9 phase I reactions: surprisingly labile; stability in human liver S9 fractions [8]: similarly stable; CC50 (A549/ACE2/TMPRSS2 cells): > 100 µM; therapeutic index (TI=CC50/EC50) ([2]; CC50/EC50): greater than 139; Mouse Liver S9 Stability t1/2, Phase I ([9]; cofactor NADPH): 28.9 ± 0.3 min; Mouse Liver S9 Stability t1/2, Phase II [9]: >45^e min
Nc1ncnn2c([C@@H]3O[C@H](CNS(=O)(=O)c4cccc5ccccc45)[C@@H](O)[C@H]3O)ccc12 [Compound 12, N-(((2R,3S,4R,5S)-5-(4-Aminopyrrolo[2,1-f][1,2,4]triazin-7-yl)-3,4-dihydroxytetrahydrofuran-2-yl)methyl)naphthalene-1-sulfonamide] | 3 µM | 7.3 µM | > 100 µM | – | –
Nc1ncnn2c([C@@H]3O[C@H](CNS(=O)(=O)c4cc5ccccc5s4)[C@@H](O)[C@H]3O)ccc12 [Compound 13, N-(((2R,3S,4R,5S)-5-(4-aminopyrrolo[2,1-f][1,2,4]triazin-7-yl)-3,4-dihydroxytetrahydrofuran-2-yl)methyl)benzo[b]thiophene-2-sulfonamide] | 1.6 µM | – | > 100 µM | – | IC50 (SARS-CoV-2 Nsp14 MTase): 0.042 µM
Nc1ncnn2c([C@@H]3O[C@H](CNS(=O)(=O)c4csc5ccccc45)[C@@H](O)[C@H]3O)ccc12 [Compound 14, N-(((2R,3S,4R,5S)-5-(4-Aminopyrrolo[2,1-f][1,2,4]triazin-7-yl)-3,4-dihydroxytetrahydrofuran-2-yl)methyl)benzo[b]thiophene-3-sulfonamide] | 13 µM | 2 µM | > 100 µM | – | –
Nc1ncnn2c([C@@H]3O[C@H](CNS(=O)(=O)c4ccc5ccccc5c4)[C@@H](O)[C@H]3O)cc(I)c12 [Compound 49, N-(((2R,3S,4R,5S)-5-(4-Amino-5-iodopyrrolo[2,1-f][1,2,4]triazin-7-yl)-3,4-dihydroxytetrahydrofuran-2-yl)methyl)naphthalene-2-sulfonamide] | 11 µM | 0.046 µM | 28 µM | – | –
Nc1ncnc2c1ncn2[C@@H]1C[C@H](CNS(=O)(=O)c2ccc3ccccc3c2)[C@@H](O)[C@H]1O [Compound A1, N-(((1R,2R,3S,4R)-4-(6-Amino-9H-purin-9-yl)-2,3-dihydroxycyclopentyl)methyl)naphthalene-2-sulfonamide] | – | – | > 100 µM | 33% | IC50 (SARS-CoV-2 Nsp14 MTase): 0.78 µM
CCN(C[C@H]1C[C@@H](n2cnc3c(N)ncnc32)[C@H](O)[C@@H]1O)S(=O)(=O)c1ccc2ccccc2c1 [Compound A2, N-(((1R,2R,3S,4R)-4-(6-Amino-9H-purin-9-yl)-2,3-dihydroxycyclopentyl)methyl)-N-ethylnaphthalene-2-sulfonamide] | – | 0.26 µM | > 100 µM | 29% | –
Nc1ncnc2c1ncn2[C@@H]1C[C@H](CNS(=O)(=O)c2ccc3ccccc3c2)[C@H](O)[C@@H]1O [Compound A3, N-(((1R,2S,3R,4R)-4-(6-Amino-9H-purin-9-yl)-2,3-dihydroxycyclopentyl)methyl)naphthalene-2-sulfonamide] | – | – | > 100 µM | 41% | IC50 (SARS-CoV-2 Nsp14 MTase): 103 µM
CCN(C[C@H]1C[C@@H](n2cnc3c(N)ncnc32)[C@@H](O)[C@H]1O)S(=O)(=O)c1ccc2ccccc2c1 [Compound A4, N-(((1R,2S,3R,4R)-4-(6-Amino-9H-purin-9-yl)-2,3-dihydroxycyclopentyl)methyl)-N-ethylnaphthalene-2-sulfonamide] | – | 5.1 µM | > 100 µM | 34% | –
O=c1ccc2ccc(O)cc2o1 [Umbelliferone, reference compound] | – | – | – | – | Mouse Liver S9 Stability t1/2, Phase II [9]: 0.8 ± 0.005 min
